Measurements from patent publication US20230123334A1, “AMINO LIPID COMPOUND, PREPARATION METHOD THEREFOR, AND APPLICATION THEREOF” (SHENZHEN SHENXIN BIOTECHNOLOGY CO., LTD., priority 2020, published 2023).

Tested on: HEK293 cells
Assay: Preliminary screening as mRNA vectors, EGFP mRNA transfection of HEK293 cells
Assay type: cell-based
Conditions: EGFP mRNA 50 ng per well, 96-well plates; percentage of GFP fluorescent cells relative to total number of cells (Hoechst)
How it was run: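 Screening format: EGFP mRNA transfection (50 ng/well) into HEK293 in 10% FBS-supplemented DMEM. Percent green fluorescent cells, normalised to Hoechst nuclear count, gave the value; Lipofectamine2000 was the reference transfectant.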

Row | Compound | Absolute mRNA transfection efficiency in HEK293 cells
1 | CCCCCCCCCCCCCCCCCCSc1nc(NCCCCCCCCCCCCCCCC)nc(NCCCN2CCOCC2)n1 [Compound D8S18N16] | 0.0%
2 | CCCCCCCCCCCCCCCCCCNc1nc(NCCCN2CCOCC2)nc(SCCCCCCCCCCCCCCCCCC)n1 [Compound D8S18N18] | 0.0%
3 | CCCCCCNc1nc(NCCCN2CCN(C)CC2)nc(SCCCCCC)n1 [Compound D9S6N6] | 1.5%
4 | CCCCCCCNc1nc(NCCCN2CCN(C)CC2)nc(SCCCCCC)n1 [Compound D9S6N7] | 2.6%
5 | CCCCCCCCNc1nc(NCCCN2CCN(C)CC2)nc(SCCCCCC)n1 [Compound D9S6N8] | 2.5%
6 | CCCCCCCCCNc1nc(NCCCN2CCN(C)CC2)nc(SCCCCCC)n1 [Compound D9S6N9] | 0.9%
7 | CCCCCCCCCCCNc1nc(NCCCN2CCN(C)CC2)nc(SCCCCCC)n1 [Compound D9S6N11] | 11.9%
8 | CCCCCCCCCCCCNc1nc(NCCCN2CCN(C)CC2)nc(SCCCCCC)n1 [Compound D9S6N12] | 4.9%
9 | CCCCCCCCCCCCCNc1nc(NCCCN2CCN(C)CC2)nc(SCCCCCC)n1 [Compound D9S6N13] | 6.6%
10 | CCCCCCCCCCCCCCCNc1nc(NCCCN2CCN(C)CC2)nc(SCCCCCC)n1 [Compound D9S6N15] | 11.9%
11 | CCCCCCCCCCCCCCCCNc1nc(NCCCN2CCN(C)CC2)nc(SCCCCCC)n1 [Compound D9S6N16] | 29.6%
12 | CCCCCCCCCCCCCCCCCCNc1nc(NCCCN2CCN(C)CC2)nc(SCCCCCC)n1 [Compound D9S6N18] | 24.0%
13 | CCCCCCSc1nc(NCCCN2CCN(C)CC2)nc(SCCCCCC)n1 [Compound D9S6S6] | 8.0%
14 | CCCCCCCSc1nc(NCCCN2CCN(C)CC2)nc(SCCCCCC)n1 [Compound D9S6S7] | 6.3%
15 | CCCCCCCCSc1nc(NCCCN2CCN(C)CC2)nc(SCCCCCC)n1 [Compound D9S6S8] | 3.0%
16 | CCCCCCCCCSc1nc(NCCCN2CCN(C)CC2)nc(SCCCCCC)n1 [Compound D9S6S9] | 5.6%
17 | CCCCCCCCCCSc1nc(NCCCN2CCN(C)CC2)nc(SCCCCCC)n1 [Compound D9S6S10] | 23.7%
18 | CCCCCCCCCCCSc1nc(NCCCN2CCN(C)CC2)nc(SCCCCCC)n1 [Compound D9S6S11] | 8.5%
19 | CCCCCCCCCCCCSc1nc(NCCCN2CCN(C)CC2)nc(SCCCCCC)n1 [Compound D9S6S12] | 1.0%
20 | CCCCCCCCCCCCCCSc1nc(NCCCN2CCN(C)CC2)nc(SCCCCCC)n1 [Compound D9S6S14] | 35.8%
21 | CCCCCCCCCCCCCCCSc1nc(NCCCN2CCN(C)CC2)nc(SCCCCCC)n1 [Compound D9S6S15] | 6.5%
22 | CCCCCCCCCCCCCCCCSc1nc(NCCCN2CCN(C)CC2)nc(SCCCCCC)n1 [Compound D9S6S16] | 38.2%
23 | CCCCCCCCCCCCCCCCCCSc1nc(NCCCN2CCN(C)CC2)nc(SCCCCCC)n1 [Compound D9S6S18] | 62.8%
24 | CCCCCCCSc1nc(NCCCCCC)nc(NCCCN2CCN(C)CC2)n1 [Compound D9S7N6] | 0.8%
25 | CCCCCCCNc1nc(NCCCN2CCN(C)CC2)nc(SCCCCCCC)n1 [Compound D9S7N7] | 2.5%
26 | CCCCCCCCNc1nc(NCCCN2CCN(C)CC2)nc(SCCCCCCC)n1 [Compound D9S7N8] | 1.7%
27 | CCCCCCCCCNc1nc(NCCCN2CCN(C)CC2)nc(SCCCCCCC)n1 [Compound D9S7N9] | 5.2%
28 | CCCCCCCCCCCNc1nc(NCCCN2CCN(C)CC2)nc(SCCCCCCC)n1 [Compound D9S7N11] | 13.8%
